Source: US10717981B2, “Therapeutic compositions and methods of making and using the same” (Advanced ReGen Medical Technologies, LLC, priority 2018, dated 2020)

Tests used:
aged cells = assay: Clonogenic assay (CFU-GM) of aged cells after miRNA mimic, siRNA or exosome treatment; format: cell-based, human; conditions: overexpression of candidate miRNAs in aged isochronic cultures, vs negative control RNA
From the text: Aged TNCs (10×10^6 cells per sample) were nucleofected with microRNA mimics (Qiagen), miRNA inhibitors (Qiagen), negative control siRNA (Qiagen), negative control miRNA inhibitor (Qiagen) or downstream target candidate siRNAs (Origene) using the Amaxa P3 Primary Cell 4D-Nucleofector X Kit (Lonza) on a 4D Nucleofector device (Lonza), according to manufacturer's specific protocol. Briefly, for nucleofection of CD34+ cells used in clonogenic assays, cells were nucleofected with 60 nmol total miRNA mimics, miRNA inhibitors or siRNA using the “human CD34+ cell” program. For nucleofection of T cells used in T cell activation and cell-mediated cytotoxicity assays, cells were nucleofected with 240 nmol total miRNA mimics, miRNA inhibitors or siRNA using the “human unstimulated T cell, high functionality” program.

K562 = assay: Cell-mediated cytotoxicity assay, aged effector cells; format: cell-based; conditions: miRNA formulations in aged cells, vs control RNA
Protocol: Cell cytotoxicity was determined with the CFSE/7-AAD Cell Cytotoxicity Kit (Cayman Chemical) according to manufacturer's specified instructions. Briefly, the human chronic myelogenous leukemia cell line, K562, (ATCC # CCL-243) was used as target cells. 107 K562 cells were labeled for 15 min with CFSE dye, washed twice and diluted 100-fold for 30 min incubation at 37° C. Cells from 7-day isochronic or heterochronic cultures were used as effectors. Effector and target cells were added to 6-well plates at the following effector-to-target (E:T) ratios: 0:1, 6.25:1, 12.5:1 and 25:1, and cell mixtures incubated for 4 h at 37° C. Cells were harvested and counter-stained with 7-AAD. 50,000 events were acquired on the FACSCalibur flow cytometer, and data analyzed using BD CellQuest Pro™ software. Target cells incubated alone with 7-AAD served as control to calculate spontaneous lysis, while effector cells alone with 7-AAD served as control to detect dead effector cells. Percent lysis was calculated according the following formula: [(cells positive for both CFSE and 7-AAD/total CFSE-labeled cells)*100−spontaneous % lysis]. […]

huNSG mice = test system: huNSG mice
Protocol: T cell activation was determined using the T Cell Activation/Expansion Kit (Miltenyi). Briefly, anti-biotin MACSiBead Particles were loaded with CD2, CD3, and CD28 antibodies. Cells from 7-day isochronic or heterochronic cultures, or MNCs isolated from huNSG mouse blood by Ficoll-Hypaque density gradient, were incubated with loaded anti-biotin MACSiBead Particles at a 1:2 bead to cell ratio for 72 h to activate T cells. Addition of unloaded MACSiBead Particles served as negative control. After 72 h, cells were fluorescently labeled using CD45-FITC, CD4-PE, CD25-PerCP-Cy5.5 and CD8-APC to determine T cell activation status by flow cytometry.
5-week old, female NOD/scid IL2Rγnull (NSG) mice were purchased from Jackson Labs and housed in an AALAC-accredited facility at Rutgers, N.J. Medical School (Newark, N.J.). The protocol was approved by the Institutional Animal Care and Use Committee, Rutgers School of Biomedical Health Sciences (Newark, N.J.). Mice were acclimated in the Rutgers barrier animal facility for 1 week prior to experimental use. 6-week old mice were subjected to 150 cGy whole body gamma irradiation using a Mark-I cesium irradiator unit. 5 hours post-irradiation, mice were injected i.v. with 5×10^5 human CD34+ cells isolated from aged or young study donor Leukopaks. Engraftment proceeded over 15-19 weeks, with peripheral blood chimerism monitored at 9 and 13 weeks post-transplant. % Chimerism was detected by co-labeling blood with anti-human CD45-APC (HI30) and anti-mouse CD45-FITC (30-F11) for monitoring by flow cytometry. Humanized NSG (huNSG) enrolled in the treatment arm of the transwell-based animal study were given a 2nd i.v. injection of 5×10^5 autologous aged cells from 7-day isochronic (non-restored) or heterochronic (restored) cultures that were CD3-depleted (Miltenyi) prior to transplant, or saline control. The miRNA-based animal study was performed as above, except that the treatment arm utilized autologous aged cells transfected with 60 nmol total of either miR-619 alone, miR-combo (miR-619, -1303, 4497) or control RNA. Transfections utilized the HiPerFect reagent (Qiagen), and cells were transfected for a total of 7 days prior to CD3 depletion and i.v. injection as above. Mice were sacrificed at 14-15 weeks post-transplant, and blood, BM and speen harvested for biochemical, phenotypic and functional analyses. Major organs were also harvested for histological assessment. Tissue embedding, processing and staining were performed by the Digital Imaging and Histology Core of Rutgers-New Jersey Medical School Cancer Center (Newark, N.J.). Histologic findings were confirmed on H&E slides by a board-certified veterinary pathologist.
Detection of senescence associated secretory factors (SASFs) in plasma of huNSG mice was performed using Custom C-Series Human Antibody Arrays (Ray Biotech). Arrays were labeled with antibodies to 68 different factors linked to cellular senescence. Briefly, blood from huNSG mice was pelleted for 10 min at 300 g and plasma supernatant collected in siliconized microfuge tubes for SASF determination. […] Background levels were calculated by incubating the arrays with plasma from non-humanized NSG mice and then subtracting the obtained values from each huNSG sample.
For the T Cell Cytokine Array (Ray Biotech), conditioned media was collected from cells isolated from huNSG peripheral blood that were stimulated as per the T cell activation assay (see above) after 72 h and stored in protein lo-bind tubes. […] For both the custom SASF and T cell cytokine arrays, densitometry was performed using the UN-SCAN-IT densitometry software (Silk Scientific). Hierarchical clustering and heat map generation were perfomed with Heatmapper software.
BM from huNSG were flushed with a 26-gauge needle and collected for subsequent purification of engrafted human cells with the Mouse Cell Depletion Kit (Miltenyi).

miR-619: miRNA (miR-619-5p), GCUGGGAUUACAGGCAUGAGCC (chemistry not given here; listed as Homo sapiens)
aged colony formation (aged cells): significant effect | target lysis (cell-mediated cytotoxicity) (K562): significant increases | SASFs decreased (68 factors linked to the SASP) (huNSG mice; blood plasma, 1.5-fold cutoff, vs control): 51.4% | total SASF expression (huNSG mice; blood plasma, vs control): significant decreases | mean overall survival (huNSG mice; mice receiving aged cells treated with miRNA, 15 weeks after 2nd transplant): 89% | clonogenicity (huNSG mice; normalized to control, compared to heterochronic treatment): more robust | huCD3+ cells in blood (huNSG mice; vs RNA control): increased | huCD4+ cells in blood (huNSG mice; vs RNA control): significantly increased | BM clonogenicity (huNSG mice; vs control): significantly increased | huCD4+/CD8+ ratio in blood (huNSG mice; vs control): increased | huCD8+ cells in blood (huNSG mice; vs control): decreased | human chimerism in BM or blood (huNSG mice; vs control RNA): No significant difference
